Data reported in US11046691B1 (IDEAYA BIOSCIENCES, INC., priority 2018, dated 2021).

Target: hMAT2A (Homo sapiens (Human), UniProt P31153)
Assay: Malachite Green Assay (MAT2A enzyme inhibition)
Assay type: biochemical
Conditions: hMAT2A 50 nM, substrates 500 uM each, 1 hour
Protocol: The ability of the compound of present disclosure to inhibit MAT2A enzyme was determined using the Malachite Green or Phosphate Sensor Fluorescence Assay described below.
L-methionine Substrate: Alfa Aesar catalog #J61904
ATP Substrate: Alfa Aesar cat #J60336
Malachite Green Detection Reagent: Millipore Sigma catalog #MAK307-1KT
Assay buffer: 50 mM Tris, pH 7.5/50 mM KCl/10 mM MgCl2/0.01% Brij-35/1 mM DTT/0.1% BGG
The plate was centrifuged at 1000 rpm for 1 minute and then incubated at room temperature for 1 hour. 5 μL of malachite green detection reagent was added to all the test wells and the plate was centrifuged at 1000 rpm for 1 minute and then incubated at room temperature for 30 minutes. The plate was read for absorbance at 620 nm on a plate reader (e.g., Infinite M1000).

Sequence of hMAT2A (P31153 whole entry): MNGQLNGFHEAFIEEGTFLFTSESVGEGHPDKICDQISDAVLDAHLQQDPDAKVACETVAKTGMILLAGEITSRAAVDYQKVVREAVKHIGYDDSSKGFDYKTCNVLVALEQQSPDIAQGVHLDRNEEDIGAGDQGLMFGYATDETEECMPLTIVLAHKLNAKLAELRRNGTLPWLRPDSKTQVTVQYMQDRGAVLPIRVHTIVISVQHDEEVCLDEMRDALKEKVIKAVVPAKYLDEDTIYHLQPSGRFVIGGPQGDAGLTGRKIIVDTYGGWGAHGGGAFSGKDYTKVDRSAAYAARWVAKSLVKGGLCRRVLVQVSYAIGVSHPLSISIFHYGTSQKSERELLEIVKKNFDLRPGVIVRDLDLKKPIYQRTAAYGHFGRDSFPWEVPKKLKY

**Q.** With `CN(c1nc(=O)n(-c2cccc(F)c2)c2cc(Cl)ccc12)C1CC1` [Example 39, 7-chloro-4-(cyclopropylmethylamino)-1-(3-fluorophenyl)hydroquinazolin-2-one] as the molecule, how does the IC50 read?
**A.** The IC50 was less than 200 nM.

**Q.** With `CN(C)c1nc(=O)n(-c2ccccc2)c2c(Cl)c(Cl)ccc12` [Example 42, 7,8-dichloro-4-(dimethylamino)-1-phenylquinazolin-2(1H)-one] as the molecule, how does the IC50 read?
**A.** Its IC50 is 200 to 500 nM.

**Q.** Which IC50 does the source give for `Cc1c(Cl)ccc2c(N(C)C)nc(=O)n(-c3ccccc3)c12` [Example 43, 7-chloro-4-(dimethylamino)-8-methyl-1-phenyl-quinazolin-2(1H)-one] here?
**A.** The IC50 was 1000 to 10000 nM.

**Q.** For `CNc1nc(=O)n(-c2ccccc2)c2cc(C)ccc12` [Example 44, 7-methyl-4-(methylamino)-1-phenyl-quinazolin-2(1H)-one], which IC50 is on record?
**A.** Its IC50 is less than 200 nM.

**Q.** How did the IC50 turn out when `CNc1nc(=O)n(-c2ccccc2)c2cc(C3CC3)ccc12` [Example 45, 7-cyclopropyl-4-(methylamino)-1-phenylquinazolin-2(1H)-one] was run?
**A.** The IC50 was less than 200 nM.

**Q.** With `CNc1nc(=O)n(-c2cccc(O)c2)c2cc(Cl)ccc12` [Example 46, 7-chloro-1-(3-hydroxyphenyl)-4-(methylamino)-hydroquinazolin-2-one] as the molecule, how does the IC50 read?
**A.** Its IC50 is less than 200 nM.

**Q.** Which IC50 does the source give for `CNc1nc(=O)n(-c2cccc(CCO)c2)c2cc(Cl)ccc12` [Example 47, 7-chloro-1-[3-(2-hydroxyethyl)phenyl]-4-(methylamino)-hydroquinazolin-2-one] here?
**A.** The IC50 was less than 200 nM.

**Q.** How did the IC50 turn out when `CNc1nc(=O)n(-c2cccc(CCCO)c2)c2cc(Cl)ccc12` [Example 48, 7-chloro-1-[3-(3-hydroxypropyl)-phenyl]-4-(methylamino)hydro-quinazolin-2-one] was run?
**A.** Its IC50 is less than 200 nM.

**Q.** How did the IC50 turn out when `CNc1nc(=O)n(-c2ccccc2)c2cc(OC)ccc12` [Example 49, 7-methoxy-4-(methylamino)-1-phenyl-quinazolin-2(1H)-one] was run?
**A.** Its IC50 is less than 200 nM.

**Q.** With `CNc1nc(=O)n(-c2ccccc2)c2cc(C#N)ccc12` [Example 50, 4-(methylamino)-2-oxo-1-phenyl-1,2-dihydro-quinazoline-7-carbonitrile] as the molecule, how does the IC50 read?
**A.** The IC50 was less than 200 nM.

**Q.** Which IC50 does the source give for `CNc1nc(=O)n(-c2ccccc2)c2cc(C(F)(F)F)ccc12` [Example 51, 4-(methylamino)-1-phenyl-7-(trifluoro-methyl)-quinazolin-2(1H)-one] here?
**A.** The IC50 was less than 200 nM.

**Q.** How did the IC50 turn out when `CN(C)c1nc(=O)n(-c2cccc(NS(C)(=O)=O)c2)c2cc(Cl)ccc12` [Example 52, N-(3-(7-chloro-4-(dimethylamino)-2-oxoquinazolin-1 (2H)-yl)phenyl)-methanesulfonamide] was run?
**A.** The IC50 was less than 200 nM.

**Q.** With `CN(C)c1nc(=O)n(-c2cccc(O)c2)c2cc(Cl)ccc12` [Example 54] as the molecule, how does the IC50 read?
**A.** Its IC50 is less than 200 nM.

**Q.** `CNc1nc(=O)n(-c2cccc(C)c2)c2cc(Cl)ccc12` [Example 55] was tested. Which IC50 did it give?
**A.** Its IC50 is less than 200 nM.

**Q.** How did the IC50 turn out when `CNc1nc(=O)n(-c2cccc(Cl)c2)c2cc(Cl)ccc12` [Example 56, 7-Chloro-1-(3-chlorophenyl)-4-(methylamino)hydroquinazolin-2-one] was run?
**A.** The IC50 was less than 200 nM.

**Q.** How did the IC50 turn out when `CNc1nc(=O)n(-c2ccccc2F)c2cc(Cl)ccc12` [Example 57, 7-chloro-1-(2-fluorophenyl)-4-(methylamino)quinazolin-2(1H)-one] was run?
**A.** Its IC50 is less than 200 nM.

**Q.** With `Nc1nc(=O)n(-c2ccccc2)c2cc(Cl)ccc12` [Example 59, 4-amino-7-chloro-1-phenylquinazolin-2(1H)-one] as the molecule, how does the IC50 read?
**A.** The IC50 was less than 200 nM.

**Q.** Which IC50 does the source give for `CN(C)c1nc(=O)n(-c2cccc(Br)c2)c2cc(Cl)ccc12` [Example 60, 1-(3-bromophenyl)-7-chloro-4-(dimethylamino)quinazolin-2(1H)-one] here?
**A.** Its IC50 is less than 200 nM.

**Q.** With `CNc1nc(=O)n(-c2cccc(F)c2)c2cc(Cl)ccc12` [Example 61, 7-chloro-1-(3-fluorophenyl)-4-(methylamino)quinazolin-2(1H)-one] as the molecule, how does the IC50 read?
**A.** The IC50 was less than 200 nM.

**Q.** With `COc1nc(=O)n(-c2ccccc2)c2cc(Cl)ccc12` [Example 62, 7-chloro-4-methoxy-1-phenyl-quinazolin-2(1H)-one] as the molecule, how does the IC50 read?
**A.** Its IC50 is 200 to 500 nM.

**Q.** `CN(C)CCN(C)c1nc(=O)n(-c2ccccc2)c2cc(Cl)ccc12` [Example 63, 7-chloro-4-((2-(dimethylamino)ethyl)-(methyl)-amino)-1-phenylquinazolin-2(1H)-one] was tested. Which IC50 did it give?
**A.** Its IC50 is 1000 to 10000 nM.

**Q.** Which IC50 does the source give for `CN(C)CCNc1nc(=O)n(-c2ccccc2)c2cc(Cl)ccc12` [Example 64, 7-chloro-4-((2-(dimethylamino)ethyl)-amino)-1-phenylquinazolin-2(1H)-one] here?
**A.** The IC50 was 1000 to 10000 nM.

**Q.** `O=c1nc(N2CCCCC2)c2ccc(Cl)cc2n1-c1ccccc1` [Example 66, 7-chloro-1-phenyl-4-(piperidin-1-yl)-quinazolin-2(1H)-one] was tested. Which IC50 did it give?
**A.** Its IC50 is less than 200 nM.

**Q.** For `O=c1nc(N2CCCC2)c2ccc(Cl)cc2n1-c1ccccc1` [Example 67, 7-chloro-1-phenyl-4-(pyrrolidin-1-yl)-quinazolin-2(1H)-one], which IC50 is on record?
**A.** The IC50 was less than 200 nM.

**Q.** How did the IC50 turn out when `CNc1nc(=O)n(-c2ccccc2)c2cc(Cl)cc(OC)c12` [Example 70, 7-chloro-5-methoxy-4-(methylamino)-1-phenylquinazolin-2(1H)-one] was run?
**A.** Its IC50 is less than 200 nM.

**Q.** Which IC50 does the source give for `CNc1nc(=O)n(-c2ccccc2)c2cc(Cl)c(OC)cc12` [Example 73, 7-chloro-6-methoxy-4-(methylamino)-1-phenylquinazolin-2(1H)-one] here?
**A.** The IC50 was less than 200 nM.

**Q.** How did the IC50 turn out when `O=c1nc(N2CC(O)C2)c2ccc(Cl)cc2n1-c1ccccc1` [Example 74, 7-chloro-4-(3-hydroxyazetidin-1-yl)-1-phenylquinazolin-2(1H)-one] was run?
**A.** Its IC50 is less than 200 nM.

**Q.** Which IC50 does the source give for `CN(C)c1nc(=O)n(-c2cccc(CCOc3ccccc3)c2)c2cc(Cl)ccc12` [Example 75, 7-chloro-4-(dimethylamino)-1-(3-(2-phenoxyethyl)phenyl)quinazolin-2(1H)-one] here?
**A.** The IC50 was less than 200 nM.

**Q.** With `COc1cccc(-n2c(=O)nc(N(C)C)c3ccc(Cl)cc32)c1` [Example 76] as the molecule, how does the IC50 read?
**A.** Its IC50 is less than 200 nM.

**Q.** Which IC50 does the source give for `CN(C)c1nc(=O)n(-c2cccc(CO)c2)c2cc(Cl)ccc12` [Example 77] here?
**A.** The IC50 was less than 200 nM.

**Q.** For `CN(C)c1nc(=O)n(-c2cccc(C#N)c2)c2cc(Cl)ccc12` [Example 81, 3-[4-(dimethylamino)-7-chloro-2-oxohydroquinazolinyl]benzenecarbo-nitrile], which IC50 is on record?
**A.** The IC50 was less than 200 nM.

**Q.** With `N#CC1CN(c2nc(=O)n(-c3cccc(F)c3)c3cc(Cl)ccc23)C1` [Example 82, 1-(7-chloro-1-(3-fluorophenyl)-2-oxo-1,2-dihydroquinazolin-4-yl)azetidine-3-carbonitrile] as the molecule, how does the IC50 read?
**A.** The IC50 was less than 200 nM.
